Tests used:
[1] = molecular target: T1, BRN2 (Homo sapiens, UniProt P20265); assay: cell-based; details: negative = activation; for inhibition at 10 µM: read-out: % BRN2 Inhibition (10 μM), 10 μM compound, 24 hours, 42D^ENZR cells stably expressing BRN2-luciferase reporter; for inhibition at 30 µM: read-out: % BRN2 Inhibition (30 μM), 30 μM compound, 24 hours, 42D^ENZR cells stably expressing BRN2-luciferase reporter
T1 sequence (P20265 1-443): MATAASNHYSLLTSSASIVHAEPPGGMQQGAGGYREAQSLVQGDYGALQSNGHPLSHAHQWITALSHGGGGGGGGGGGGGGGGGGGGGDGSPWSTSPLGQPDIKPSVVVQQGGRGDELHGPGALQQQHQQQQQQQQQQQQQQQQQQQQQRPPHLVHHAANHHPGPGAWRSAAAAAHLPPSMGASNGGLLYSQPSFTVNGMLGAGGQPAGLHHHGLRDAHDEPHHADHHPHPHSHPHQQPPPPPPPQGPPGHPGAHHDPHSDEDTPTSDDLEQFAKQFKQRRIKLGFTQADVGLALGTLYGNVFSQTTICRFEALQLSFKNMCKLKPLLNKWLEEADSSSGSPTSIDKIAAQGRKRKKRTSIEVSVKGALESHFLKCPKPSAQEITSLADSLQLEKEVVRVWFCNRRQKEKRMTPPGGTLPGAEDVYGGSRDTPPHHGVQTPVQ
Excerpt: Decreased expression of luciferase protein is validated via western blot to confirm downregulation and avoid false positive molecules that inhibit luciferase protein activity and not BRN2-drive luciferase expression. Molecules are prioritized by their inhibition potency to measure direct interaction with BRN2 in Step 2.
In TABLES 1 and 2, when a single value is mentioned in columns Met Stab % and T½, it refers to compound's stability in MLM and when two values are given they represent HLM/MLM. There is a distinction in TABLES 1 and 2 difference between “Active” and “Specific” or “Specificity”. Compounds are first tested to quantify inhibition of BRN2 transcriptional activity in a luciferase assay to determine “Activity” at […] and 30 μM concentrations. […] Where data is not available “na” is inserted. Where data has yet to be calculated the notation “nc” is used.

[2] = Liver microsome metabolic stability, MLM; format: in vitro ADME; details: MLM (single value or second of two), 1 μM compound, 0.25 mg/mL protein; for Met Stab % (60 mins HLM/MLM): percent remaining at 60 min, 1 mM NADPH; for half-life at 1 µM: mouse, liver microsomes, pH 7.4, read-out: T1/2 in (mins HLM/MLM)
Method: (§1) Potassium phosphate buffer (Kphos) was prepared by adding 0.647 g potassium phosphate monobasic (KH2PO4) and 3.527 g potassium phosphate dibasic ([…]) to 400 mL of Milli-Q water. pH of the buffer was adjusted to 7.4 and volume was made up to 500 mL.
(§2) Microsomes (20 mg/mL) were diluted in KH2PO4 buffer to prepare a concentration of 0.357 mg/mL.
(§3) Stock solutions of BRN2 inhibitors were prepared in DMSO at a concentration of 1 mM
(§4) A stock solution of 3.33 mM NADPH (3.33×) was prepared by dissolving appropriate amount of NADPH in KH2PO4 buffer.
(§5) Total Incubation volume: 100 μL
(§6) Compound concentration: 1 μM
(§7) Protein Concentration: 0.25 mg/mL
(§8) An 1120 μL aliquot of Kphos buffer (50 mM, pH 7.4) containing liver microsomes (0.357 mg/mL) were added to individual 2 mL tubes (final concentration 0.25 mg/mL). Test compounds (1 mM) and positive controls were directly spiked into respective tubes to prepare a concentration of 1.428 μM (final concentration 1 μM). From the above mix, 70 μL was added to individual wells of 96 well reaction plates and pre-incubated in a 37° C. water bath for 5 min. All the reactions were initiated by adding 30 μL of 3.33 mM NADPH (final concentration 1 mM). Reactions without NADPH and buffer controls (minus NADPH) at 0 min and 60 min were also incubated to rule out non-NADPH metabolism or chemical instability in the incubation buffer. All reactions were terminated using 100 μL of ice-cold acetonitrile containing internal standard at 0, 5, 15, 30 and 60 min. The plates were centrifuged at 4000 RPM for 15 min and 100 μL aliquots were submitted for analysis by LC-MS/MS.
(§9) Samples were monitored for parent compounds disappearance in MRM mode using LC-MS/MS.
(§10) The percent remaining of test compounds and positive control in each sample was determined by considering peak area ratio in the 0 minute sample as 100%. The Half-life of compounds in microsomes is calculated by formula:
(§11) Half-life (t½) (min)=0.693/k, where k is gradient of line determined from plot of peak area ratio (compound peak area/internal standard peak area) against time.
(§12) In vitro intrinsic clearance (CL'int) (units in mL/min/kg) was calculated using the formula.
(§13) [formula] • For liver microsomes, scaling factor used was 45 mg microsomal protein per gm liver. • Indicates liver weight (gm) which varies species wise. For mice the liver weights are 90 gm.
(§14) Where data is not available “na” is inserted.

[3] = Liver microsome metabolic stability, HLM; format: in vitro ADME; details: HLM (first of two values), 1 μM compound, 0.25 mg/mL protein; for Met Stab % (60 mins HLM/MLM): percent remaining at 60 min, 1 mM NADPH; for half-life at 1 µM: human, liver microsomes, pH 7.4, read-out: T1/2 in (mins HLM/MLM)
Method: as §1, §2, §3, §4, §5, §6, §7, §8, §9, §10, §11, §12, §13, §14

SMILES	inhibition at 10 µM [1] [%]	inhibition at 30 µM [1] [%]	Met Stab % (60 mins HLM/MLM) [2] [%]	half-life at 1 µM [2] [min]	Met Stab % (60 mins HLM/MLM) [3] [%]	half-life at 1 µM [3] [min]
c1ccc2c(c1)CCC2c1ccc(-c2nc3ccccc3s2)o1 (stereo not shown) [VPC-7-44]	83	93	44	52	62	> 60
Cc1c(-c2csc(-c3ccco3)n2)oc2ccccc12 [VPC-18-53, 2-(Furan-2-yl)-4-(3-methylbenzofuran-2-yl)thiazole]	78.1	84.5	2	2	39	42
Cn1c(-c2ccc(-c3ccccc3)o2)nc2ccc(S(N)(=O)=O)cc21 [VPC-18-47, 1-Methyl-2-(5-phenylfuran-2-yl)-1H-benzo[d]imidazole-6-sulfonamide]	39.8	82.1	53	> 60	54	> 60
O=[N+]([O-])c1ccc2nc(-c3csc(-c4ccco4)n3)[nH]c2c1 [VPC-18-48, 2-(Furan-2-yl)-4-(6-nitro-1H-benzo[d]imidazol-2-yl)thiazole]	-6.56	91.2	2	10	9	17
CCn1c(-c2ccc(-c3ccccc3)o2)nc2ccccc21 [VPC-18-36, 1-Ethyl-2-(5-phenylfuran-2-yl)-1H-benzo[d]imidazole]	57.5	93.4	2	13	15	22
Cn1c(-c2ccc(-c3cccc(C#N)c3)o2)nc2ccccc21 [VPC-18-63, 3-(5-(1-methyl-1H-benzo[d]imidazol-2-yl)furan-2-yl)benzonitrile]	72	94	0	–	–	–
c1ccc2c(-c3cnc(-c4ccoc4)s3)coc2c1 [VPC-18-112]	41.8	81.6	1	9	–	–
Fc1ccc(-c2nc(-c3nc4ccc(C(F)(F)F)cc4o3)cs2)o1 [VPC-18-93]	-9.9	30.2	26	34	–	–
Clc1ccc2cc(-c3csc(-c4ccn[nH]4)n3)oc2c1 [VPC-18-96, 4-(6-chlorobenzofuran-2-yl)-2-(1H-pyrazol-5-yl)thiazole]	83.5	92.5	35	45	–	–
Clc1ccc2cc(-c3coc(-c4ccco4)n3)oc2c1 [VPC-18-121]	92.7	93.5	0	8	–	–
Oc1ccc2cc(-c3csc(-c4ccco4)n3)oc2c1 [VPC-18-113]	94	94	3	12	–	–
N#Cc1ccc2cc(-c3csc(-c4ccco4)n3)oc2c1 [VPC-18-80]	42	44	0	–	–	–
N#Cc1c(-c2csc(-c3ccco3)n2)oc2ccccc12 [VPC-18-88, 2-(2-(furan-2-yl)thiazol-4-yl)benzofuran-3-carbonitrile]	76	96	0	9	–	–
Clc1ccc2nc(-c3ccc(-c4ccccc4)o3)[nH]c2c1 [VPC-18-92, 6-chloro-2-(5-phenylfuran-2-yl)-1H-benzo[d]imidazole]	83	98.4	0	6	–	–
FC(F)(F)c1ccc2cc(-c3csc(-c4ncco4)n3)oc2c1 [VPC-18-98, 2-(4-(6-(trifluoromethyl)benzofuran-2-yl)thiazol-2-yl)oxazole]	84	86	53	> 60	–	–
Fc1sc(-c2ccco2)nc1-c1cc2ccc(C(F)(F)F)cc2o1 [VPC-18-100]	8.8	56.3	1	10	–	–
FC(F)(F)n1c(-c2ccc(-c3ccccc3)o2)nc2ccccc21 [VPC-18-103]	88.5	95.3	0	9	–	–
COc1ccc2cc(-c3csc(-c4ccco4)n3)oc2c1 [VPC-18-118]	74	92.5	1	9	–	–
FC(F)(F)c1ccc2cc(-c3csc(C4CCNCC4)n3)oc2c1 [VPC-18-89, 2-(piperidin-4-yl)-4-(6-(trifluoromethyl)benzofuran-2-yl)thiazole]	65	98	65	> 60	–	–
Cn1c(-c2ccc(C3CCNCC3)o2)nc2ccc(C(F)(F)F)cc21 [VPC-18-82]	11	50	100	> 60	–	–
O=C1CCN(c2nc(-c3cc4ccc(Cl)cc4o3)cs2)C1 [VPC-18-109]	81.7	91.5	4	13	–	–
Clc1ccc2cc(-c3csc(-c4ncco4)n3)oc2c1 [VPC-18-99]	29.3	39.2	28	36	–	–
CN1CCN(c2ccc(-c3nc4ccc(C(F)(F)F)cc4n3C)o2)CC1 [VPC-18-102]	22.6	55.5	0	7	–	–
Clc1ccc2nc(-c3csc(-c4ccco4)n3)oc2c1 [VPC-18-107]	36.9	66.9	7	8	–	–
FC(F)(F)c1ccc2nc(-c3ccc(-c4ccccc4)o3)[nH]c2c1 [VPC-18-87]	85	87	37	40	–	–
FC(F)(F)c1ccc2cc(-c3csc(NC4CC4)n3)oc2c1 [VPC-18-73, N-cyclopropyl-4-(6-(trifluoromethyl)benzofuran-2-yl)thiazol-2-amine]	78.8	95.7	2	11	–	–

From patent US20220106304A1, “Transcription Factor BRN2 Inhibitory Compounds as Therapeutics and Methods for Their Use” (The University of British Columbia, priority 2018, published 2022)
